# Source: US20250129002A1, “PRODUCTION METHOD OF PRODUCT 1,3-BUTYLENE GLYCOL” (KH Neochem Co., Ltd., priority 2021, published 2025)
# Tested on: Cysteine-containing peptide for DPRA
# Assay: Skin sensitization test in accordance with DPRA (direct peptide reactivity assay)
# Conditions: relative to peptide decrease percentage of Comparative Example 1 regarded as 100; 50 μL 1,3-butylene glycol with 0.667 mM peptide solution; HPLC after 72±2 hours; average of three measurements
# From the text: The product 1,3-butylene glycol in the present embodiment has reduced skin sensitization. Here, skin sensitization refers to causing an allergic reaction after skin contact. For the evaluation of skin sensitization, it had been normal to use experimental animals, but a direct peptide reactivity assay (DPRA), which is an in chemico test, was adopted as an alternative test in OECD guideline TG442C in 2015 from the viewpoint of animal welfare, and in the present embodiment as well, skin sensitization is evaluated by a test in accordance with DPRA. In more detail, skin sensitization is evaluated according to a method described in experimental examples to be described below.
# Regarding 1,3-butylene glycol obtained in Examples 1 and 2 and Comparative Examples 1 and 2, skin sensitization was evaluated according to the following method.
# 15 mg of Cysteine-containing peptide for DPRA manufactured by Scrum Inc. and 30 mL of a 0.05 M phosphate buffer were mixed together to prepare a 0.05 M phosphate buffer solution containing 0.667 mM of the peptide (hereinafter, peptide solution). After one hour elapsed from the preparation of the peptide solution, 750 μL of the peptide solution and 250 μL of acetonitrile were put into each of three brown sample bottles for HPLC to prepare three reference solutions. After two hours elapsed from the preparation of the reference solutions, 750 μL of the peptide solution, 200 μL of acetonitrile and 50 μL of 1,3-butylene glycol were put into a different brown sample bottle for HPLC to prepare a sample solution (sample solution 1). Furthermore, sample solutions were prepared by the same operation after four hours and six hours elapsed from the preparation of the sample solution, respectively (sample solution 2 and sample solution 3). Regarding each of the three reference solutions and the sample solutions (sample solution 1, sample solution 2 and sample solution 3), measurement by HPLC analysis was performed after 72±2 hours elapsed from the preparation of each solution, and the average values of three measurements were calculated for the peak height of the peptide in the reference solutions and the sample solutions, respectively. The peptide decrease percentage was calculated using the following formula (1) from the calculated average values of three measurements.
# Peptide decrease percentage (%)=(average value of three measurements for peak height of peptide in sample solutions/average value of three measurements for peak height of peptide in reference solutions)×100 (1)
# In addition, regarding the present test, samples of the product 1,3-butylene glycol to be compared were tested on the same day from the viewpoint of the reproducibility. […]
row,Structure (SMILES),Relative value of peptide decrease percentage
1,"CC(O)CCO (stereo not shown) [Comparative Example 1, 1,3-butylene glycol]",100
2,"CC(O)CCO (stereo not shown) [Example 1, 1,3-butylene glycol]",73
3,"CC(O)CCO (stereo not shown) [Comparative Example 2, 1,3-butylene glycol]",121
4,"CC(O)CCO (stereo not shown) [Example 2, 1,3-butylene glycol]",85
